# According to article PMC11995724, “Antibiotic target discovery by integrated phenotypic and activity-based profiling of electrophilic fragments” (Cell chemical biology, 2025):
# Assay: in vitro
# Settings: human, hek293t cells
row,SMILES,"viability at 48 h, 25 µM [%]"
1,"C=CC(=O)NCc1ccc(N2CC(C)CS2(=O)=O)cc1 (stereo not shown) [3-J19, N-{[4-(4-methyl-1,1-dioxo-1lambda6,2-thiazolidin-2-yl)phenyl]methyl}prop-2-enamide]",95.4
2,"C=CC(=O)NC(c1ccc(F)cc1)c1ccn(C)n1 (stereo not shown) [3-J20, N-[(4-fluorophenyl)(1-methyl-1H-pyrazol-3-yl)methyl]prop-2-enamide]",99.9
3,"C=CC(=O)N(Cc1cn2ccccc2n1)C1CC1 [3-J21, N-cyclopropyl-N-({imidazo[1,2-a]pyridin-2-yl}methyl)prop-2-enamide]",73.1
4,"C=CC(=O)NCCC(=O)N1CCN(c2ccccc2Cl)CC1 [3-J22, N-{3-[4-(2-chlorophenyl)piperazin-1-yl]-3-oxopropyl}prop-2-enamide]",88.6
5,"C=CC(=O)N1CCC(C(O)c2ccnn2C)CC1 (stereo not shown) [3-K03, 1-{4-[hydroxy(1-methyl-1H-pyrazol-5-yl)methyl]piperidin-1-yl}prop-2-en-1-one]",59
6,"C=CC(=O)NCCC(=O)N1CCOC(c2nc(C)cs2)C1 (stereo not shown) [3-K04, N-{3-[2-(4-methyl-1,3-thiazol-2-yl)morpholin-4-yl]-3-oxopropyl}prop-2-enamide]",89.7
7,"C=CC(=O)N1CCC(C(=O)NOC2CCCC2)(c2ccccc2)CC1 [3-K06, N-(cyclopentyloxy)-4-phenyl-1-(prop-2-enoyl)piperidine-4-carboxamide]",77.1
8,"C=CC(=O)N1CCCC1(COC)C(N)=O (stereo not shown) [3-K07, 2-(methoxymethyl)-1-(prop-2-enoyl)pyrrolidine-2-carboxamide]",143
9,"C=CC(=O)NCc1ccc(C(=O)N2CCC(c3ccn[nH]3)CC2)cc1 [3-K08, N-({4-[4-(1H-pyrazol-5-yl)piperidine-1-carbonyl]phenyl}methyl)prop-2-enamide]",95.2
10,"C=CC(=O)N1CCC(n2ccnn2)CC1 [3-K09, 1-[4-(1H-1,2,3-triazol-1-yl)piperidin-1-yl]prop-2-en-1-one]",65.2
11,"C=CC(=O)N1CCCN(S(N)(=O)=O)CC1 [3-K10, 4-(prop-2-enoyl)-1,4-diazepane-1-sulfonamide]",98.5
12,"C=CC(=O)N1CCOC(c2cnn(C)c2)C1 (stereo not shown) [3-K11, 1-[2-(1-methyl-1H-pyrazol-4-yl)morpholin-4-yl]prop-2-en-1-one]",49.9
13,"C=CC(=O)N1CCCCC1c1noc(C2CC2)n1 (stereo not shown) [3-K12, 1-[2-(5-cyclopropyl-1,2,4-oxadiazol-3-yl)piperidin-1-yl]prop-2-en-1-one]",105
14,"C=CC(=O)NCC(C)(C)C1(O)CCOC1 (stereo not shown) [3-K13, N-[2-(3-hydroxyoxolan-3-yl)-2-methylpropyl]prop-2-enamide]",68
15,"C=CC(=O)N1CCCC(O)(CC(N)=O)C1 (stereo not shown) [3-K14, 2-[3-hydroxy-1-(prop-2-enoyl)piperidin-3-yl]acetamide]",101
16,"C=CC(=O)NCc1cccc(NS(C)(=O)=O)c1 [3-K15, N-[(3-methanesulfonamidophenyl)methyl]prop-2-enamide]",31.7
17,"C=CC(=O)N(CC)CC(=O)N1CCc2c(cccc2NC(C)=O)C1 [3-K16, N-[2-(5-acetamido-1,2,3,4-tetrahydroisoquinolin-2-yl)-2-oxoethyl]-N-ethylprop-2-enamide]",90.5
18,"C=CC(=O)N(C)CC(=O)N1CCCCC1c1nc(C)no1 (stereo not shown) [3-K17, N-methyl-N-{2-[2-(3-methyl-1,2,4-oxadiazol-5-yl)piperidin-1-yl]-2-oxoethyl}prop-2-enamide]",47.9
19,"C=CC(=O)Nc1ccc2oc(CC(C)(C)C)nc2c1 [3-K18, N-[2-(2,2-dimethylpropyl)-1,3-benzoxazol-5-yl]prop-2-enamide]",82.2
20,"C=CC(=O)N1CCC(c2ccc(OC)c(F)c2)C1 (stereo not shown) [3-K19, 1-[3-(3-fluoro-4-methoxyphenyl)pyrrolidin-1-yl]prop-2-en-1-one]",48.9
21,"C=CC(=O)NCCCn1cnc2c1CCCC2 [3-K20, N-[3-(4,5,6,7-tetrahydro-1H-1,3-benzodiazol-1-yl)propyl]prop-2-enamide]",101
22,"C=CC(=O)N(CC)CC(=O)N1CC[S+]([O-])C(C)(C)CC1 (stereo not shown) [3-K21, N-[2-(7,7-dimethyl-1-oxo-1lambda4,4-thiazepan-4-yl)-2-oxoethyl]-N-ethylprop-2-enamide]",40.1
23,"C=CC(=O)NC1(c2ncon2)CCOCC1 [3-K22, N-[4-(1,2,4-oxadiazol-3-yl)oxan-4-yl]prop-2-enamide]",66.9
24,"C=CC(=O)N1CCC(C(=O)NCc2ncc(N(C)C)cn2)CC1 [3-L03, N-{[5-(dimethylamino)pyrimidin-2-yl]methyl}-1-(prop-2-enoyl)piperidine-4-carboxamide]",68.2
25,"C=CC(=O)Nc1cccc(-c2ccon2)c1 [3-L04, N-[3-(1,2-oxazol-3-yl)phenyl]prop-2-enamide]",70.4
26,"C=CC(=O)N(CC)CC(=O)N1CCN(c2ccsc2C#N)CC1 [3-L05, N-{2-[4-(2-cyanothiophen-3-yl)piperazin-1-yl]-2-oxoethyl}-N-ethylprop-2-enamide]",62.6

row,SMILES,"viability at 48 h, 25 µM [%]"
1,"C=CC(=O)NCc1ccc(C(=O)N2CCC[C@H]2C(=O)NC)cc1 [3-L06, (2S)-N-methyl-1-{4-[(prop-2-enamido)methyl]benzoyl}pyrrolidine-2-carboxamide]",80.6
2,"C=CC(=O)NCC(F)(F)C1(OC)CCC1 [3-L07, N-[2,2-difluoro-2-(1-methoxycyclobutyl)ethyl]prop-2-enamide]",82.7
3,"C=CC(=O)N(C)Cc1nc2c(cnn2C)c(=O)[nH]1 [3-L08, N-methyl-N-({1-methyl-4-oxo-1H,4H,5H-pyrazolo[3,4-d]pyrimidin-6-yl}methyl)prop-2-enamide]",70.4
4,"C=CC(=O)NC1(c2nc(C)no2)CC1 [3-L09, N-[1-(3-methyl-1,2,4-oxadiazol-5-yl)cyclopropyl]prop-2-enamide]",46.8
5,"C=CC(=O)Nc1cnoc1C(C)C [3-L10, N-[5-(propan-2-yl)-1,2-oxazol-4-yl]prop-2-enamide]",92.6
6,"C=CC(=O)N(C)Cc1cccnc1 [3-L11, N-methyl-N-[(pyridin-3-yl)methyl]prop-2-enamide]",82
7,"C=CC(=O)N1CCC(C(=O)NCc2cc(=O)n3ccccc3n2)CC1 [3-L12, N-({4-oxo-4H-pyrido[1,2-a]pyrimidin-2-yl}methyl)-1-(prop-2-enoyl)piperidine-4-carboxamide]",82.7
8,"C=CC(=O)NCC1CCCC1N1CCCS1(=O)=O (stereo not shown) [3-L13, N-{[2-(1,1-dioxo-1lambda6,2-thiazolidin-2-yl)cyclopentyl]methyl}prop-2-enamide]",78.9
9,"C=CC(=O)NCc1cc2cc(C)ccc2o1 [3-L14, N-[(5-methyl-1-benzofuran-2-yl)methyl]prop-2-enamide]",85.4
10,"C=CC(=O)NCc1c(F)cccc1S(=O)(=O)N(C)C [3-L15, N-{[2-(dimethylsulfamoyl)-6-fluorophenyl]methyl}prop-2-enamide]",83.2
11,"C=CC(=O)N1CC(C)c2ccc(S(N)(=O)=O)cc21 (stereo not shown) [3-L16, 3-methyl-1-(prop-2-enoyl)-2,3-dihydro-1H-indole-6-sulfonamide]",1.43
12,"C=CC(=O)NC1CC(C)Cc2cc(OC)ccc21 (stereo not shown) [3-L17, N-(6-methoxy-3-methyl-1,2,3,4-tetrahydronaphthalen-1-yl)prop-2-enamide]",61.6
13,"C=CC(=O)Nc1ccc(C2=NNC(=O)CO2)cc1 [3-L18, N-[4-(5-oxo-5,6-dihydro-4H-1,3,4-oxadiazin-2-yl)phenyl]prop-2-enamide]",67.1
14,"C=CC(=O)NCC(OC)C1CCOC1 (stereo not shown) [3-L19, N-[2-methoxy-2-(oxolan-3-yl)ethyl]prop-2-enamide]",85.8
15,"C=CC(=O)NCc1cn2c(n1)CCCC2 [3-L20, N-({5H,6H,7H,8H-imidazo[1,2-a]pyridin-2-yl}methyl)prop-2-enamide]",103
16,"C=CC(=O)NCc1ccccc1N1CCCC(C(N)=O)C1 (stereo not shown) [3-L21, 1-{2-[(prop-2-enamido)methyl]phenyl}piperidine-3-carboxamide]",68.9
17,"C=CC(=O)NCc1ccc(C(=O)N2CCC[C@@H]2C(N)=O)cc1 [3-L22, (2R)-1-{4-[(prop-2-enamido)methyl]benzoyl}pyrrolidine-2-carboxamide]",81.9
18,"C=CC(=O)N1CCn2cccc2C1c1ccncc1 (stereo not shown) [3-M03, 1-[1-(pyridin-4-yl)-1H,2H,3H,4H-pyrrolo[1,2-a]pyrazin-2-yl]prop-2-en-1-one]",45.2
19,"C=CC(=O)N1CCC(C(=O)NC2(c3ccc(F)cc3F)CCC2)CC1 [3-M04, N-[1-(2,4-difluorophenyl)cyclobutyl]-1-(prop-2-enoyl)piperidine-4-carboxamide]",97.5
20,"C=CC(=O)N1CCC(C(=O)NC(C)CC2CC2)CC1 (stereo not shown) [3-M05, N-(1-cyclopropylpropan-2-yl)-1-(prop-2-enoyl)piperidine-4-carboxamide]",53.3
21,"C=CC(=O)N1CCC(C(=O)NCC(O)c2cccc(Cl)c2)CC1 (stereo not shown) [3-M06, N-[2-(3-chlorophenyl)-2-hydroxyethyl]-1-(prop-2-enoyl)piperidine-4-carboxamide]",98.1
22,"C=CC(=O)NCC1CCc2cccnc21 (stereo not shown) [3-M07, N-({5H,6H,7H-cyclopenta[b]pyridin-7-yl}methyl)prop-2-enamide]",47.8
23,"C=CC(=O)Nc1cccc(S(=O)(=O)C2CCOCC2)c1 [3-M08, N-[3-(oxane-4-sulfonyl)phenyl]prop-2-enamide]",96.8
24,"C=CC(=O)N1CCCC1c1cn(C)nc1C (stereo not shown) [3-M09, 1-[2-(1,3-dimethyl-1H-pyrazol-4-yl)pyrrolidin-1-yl]prop-2-en-1-one]",50.9
25,"C=CC(=O)N1CCCn2nc(CO)cc2C1 [3-M10, 1-[2-(hydroxymethyl)-4H,5H,6H,7H,8H-pyrazolo[1,5-a][1,4]diazepin-5-yl]prop-2-en-1-one]",109
26,"C=CC(=O)N1CCN(C(C)c2nc(C)no2)CC1 (stereo not shown) [3-M11, 1-{4-[1-(3-methyl-1,2,4-oxadiazol-5-yl)ethyl]piperazin-1-yl}prop-2-en-1-one]",61
